Measured values: patent publication US6525001B1, “Substituted pyrimidine and pyridine herbicides” (Mid-American Commercialization Corporation, priority 1997, dated 2003)

Key:
Type in all cases: in vivo
Design in all cases: key: 0 is no effect; 10 is complete control
rice (Oryza sativa) = test: Test B flood test
In short: (§1)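 Flood test on plants grown to the 2-leaf stage; treated plants kept in greenhouse twelve to sixteen days, then visually rated against controls on a 0 (no effect) to 10 (complete control) scale.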

[1] = tested on: smallflower flatsedge (Cyperus difformis); test: Test B flood test
In short: as §1

[2] = tested on: duck salad (Heteranthera limosa); test: Test B flood test
In short: as §1

[3] = tested on: bamyardgrass (Echinochloa crus-galli); test: Test B flood test
In short: as §1

[4] = tested on: velvetleaf (Abutilon theophrasti); test: Test B pre-/postemergence
In short: (§2)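 Scored visually 0 (none) to 10 (complete control) against untreated plants after twelve to sixteen greenhouse days. Test chemicals, formulated in surfactant-containing non-phytotoxic solvent, applied to soil after planting and, separately, onto 1- to 4-leaf (2–18 cm) plants.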

[5] = tested on: giant foxtail (Setaria faberii); test: Test B pre-/postemergence
In short: as §2

[6] = tested on: momingglory (Ipomoea hederacea); test: Test B pre-/postemergence
In short: as §2

[7] = tested on: cocklebur (Xanthium strumarium); test: Test B pre-/postemergence
In short: as §2

wild oat (Avena fatua) = test: Test B pre-/postemergence
In short: as §2

[8] = tested on: blackgrass (Alopecurus myosuroides); test: Test B pre-/postemergence
In short: as §2

[9] = tested on: broadleaf signalgrass (Brachiaria decumbens); test: Test B pre-/postemergence
In short: as §2

[10] = tested on: crabgrass (Digitaria sanguinalis); test: Test B pre-/postemergence
In short: as §2

[11] = tested on: bedstraw (Galium aparine); test: Test B pre-/postemergence; conditions: Postemergence
In short: as §2

[12] = tested on: wheat (Triticum aestivum); test: Test B pre-/postemergence
In short: as §2

corn (Zea mays) = test: Test B pre-/postemergence
In short: as §2

soybean (Glycine max) = test: Test B pre-/postemergence
In short: as §2

[13] = tested on: pigweed (Amaranthus retroflexus); test: Test B pre-/postemergence
In short: as §2

[14] = tested on: sugar beet (Beta vulgaris); test: Test B pre-/postemergence
In short: as §2

rape (Brassica napus) = test: Test B pre-/postemergence
In short: as §2

[15] = tested on: purple nutsedge (Cyperus rotundus); test: Test B pre-/postemergence; conditions: Rate 62 g/ha
In short: as §2

[16] = Rate 62 g/ha, Postemergence (flood test)
[17] = Rate 125 g/ha, Postemergence section (flood test species)
[18] = Rate 250 g/ha, Postemergence (flood test species)
[19] = Preemergence, Rate 62 g/ha, scale of 0 to 10

With `O=C(c1cccc(C(F)(F)F)c1)c1ccnc(-c2ccc(C(F)(F)F)cc2)n1` [Compound 77] the “Rice plant response rating” value (rice (Oryza sativa); [16]) was 0, the “Rice plant response rating” value (rice (Oryza sativa); [17]) was 0 and the “Plant response rating, Rice” value (rice (Oryza sativa); [18]) was 0. The “S. Flatsedge plant response rating” value [1, 16] was 0, the “S. Flatsedge plant response rating” value [1, 17] was 0 and the “Plant response rating, S. Flatsedge” value [1, 18] was 0. For the same molecule, the “Ducksalad plant response rating” value [2, 16] was 0, the “Ducksalad plant response rating” value [2, 17] was 0 and the “Plant response rating, Ducksalad” value [2, 18] was 0. For the same molecule, the “Barnyardgrass plant response rating” value [3, 16] was 0, the “Barnyardgrass plant response rating” value [3, 17] was 0 and the “Plant response rating, Barnyardgrass” value [3, 18] was 0. The “Plant response rating, Velvetleaf” value [4, 19] was 0, the “Velvetleaf plant response rating” value ([4]; Rate 62 g/ha, Postemergence) was 1 and the “Velvetleaf plant response rating” value ([4]; Rate 125 g/ha, Postemergence) was 1. The “Plant response rating, Velvetleaf” value ([4]; Rate 125 g/ha, Preemergence) was 0, the “Plant response rating, Velvetleaf” value ([4]; Rate 250 g/ha, Postemergence) was 1 and the “Plant response rating, Velvetleaf” value ([4]; Rate 250 g/ha, Preemergence) was 3. For the same molecule, the “Plant response rating, Giant foxtail” value [5, 19] was 0, the “Giant foxtail plant response rating” value ([5]; Rate 62 g/ha, Postemergence) was 0 and the “Giant foxtail plant response rating” value ([5]; Rate 125 g/ha, Postemergence) was 1. For the same molecule, the “Plant response rating, Giant foxtail” value ([5]; Rate 125 g/ha, Preemergence) was 0, the “Plant response rating, Giant foxtail” value ([5]; Rate 250 g/ha, Postemergence) was 1 and the “Plant response rating, Giant foxtail” value ([5]; Rate 250 g/ha, Preemergence) was 1. The “Plant response rating, Morningglory” value [6, 19] was 0, the “Morningglory plant response rating” value ([6]; Rate 62 g/ha, Postemergence) was 2 and the “Morningglory plant response rating” value ([6]; Rate 125 g/ha, Postemergence) was 4. For the same molecule, the “Plant response rating, Morningglory” value ([6]; Rate 125 g/ha, Preemergence) was 0, the “Plant response rating, Morningglory” value ([6]; Rate 250 g/ha, Postemergence) was 4 and the “Plant response rating, Morningglory” value ([6]; Rate 250 g/ha, Preemergence) was 1. The “Plant response rating, Cocklebur” value [7, 19] was 0, the “Cocklebur plant response rating” value ([7]; Rate 62 g/ha, Postemergence) was 1 and the “Cocklebur plant response rating” value ([7]; Rate 125 g/ha, Postemergence) was 3. For the same molecule, the “Plant response rating, Cocklebur” value ([7]; Rate 125 g/ha, Preemergence) was 0, the “Plant response rating, Cocklebur” value ([7]; Rate 250 g/ha, Postemergence) was 3 and the “Plant response rating, Cocklebur” value ([7]; Rate 250 g/ha, Preemergence) was 0. The “Plant response rating, Wild oats” value (wild oat (Avena fatua); [19]) was 0, the “Wild oats plant response rating” value (wild oat (Avena fatua); Rate 62 g/ha, Postemergence) was 0 and the “Wild oats plant response rating” value (wild oat (Avena fatua); Rate 125 g/ha, Postemergence) was 0. The “Plant response rating, Wild oats” value (wild oat (Avena fatua); Rate 125 g/ha, Preemergence) was 0, the “Plant response rating, Wild oats” value (wild oat (Avena fatua); Rate 250 g/ha, Postemergence) was 1 and the “Plant response rating, Wild oats” value (wild oat (Avena fatua); Rate 250 g/ha, Preemergence) was 0. The “Plant response rating, Blackgrass” value [8, 19] was 0, the “Blackgrass plant response rating” value ([8]; Rate 62 g/ha, Postemergence) was 0 and the “Blackgrass plant response rating” value ([8]; Rate 125 g/ha, Postemergence) was 0. The “Plant response rating, Blackgrass” value ([8]; Rate 125 g/ha, Preemergence) was 0, the “Plant response rating, Blackgrass” value ([8]; Rate 250 g/ha, Postemergence) was 2 and the “Plant response rating, Blackgrass” value ([8]; Rate 250 g/ha, Preemergence) was 0. For the same molecule, the “B. signalgrass plant response rating” value ([9]; Rate 62 g/ha, Postemergence) was 0, the “B. signalgrass plant response rating” value ([9]; Rate 62 g/ha, Preemergence) was 0 and the “B. signalgrass plant response rating” value ([9]; Rate 125 g/ha, Postemergence) was 0. The “Plant response rating, B. signalgrass” value ([9]; Rate 125 g/ha, Preemergence) was 0, the “Plant response rating, B. signalgrass” value ([9]; Rate 250 g/ha, Postemergence) was 1 and the “Plant response rating, B. signalgrass” value ([9]; Rate 250 g/ha, Preemergence) was 0. The “Plant response rating, Crabgrass” value [10, 19] was 0, the “Crabgrass plant response rating” value ([10]; Rate 62 g/ha, Postemergence) was 0 and the “Crabgrass plant response rating” value ([10]; Rate 125 g/ha, Postemergence) was 2. For the same molecule, the “Plant response rating, Crabgrass” value ([10]; Rate 125 g/ha, Preemergence) was 0, the “Plant response rating, Crabgrass” value ([10]; Rate 250 g/ha, Postemergence) was 2 and the “Plant response rating, Crabgrass” value ([10]; Rate 250 g/ha, Preemergence) was 1. The “Bedstraw plant response rating” value ([11]; Rate 62 g/ha) was 1, the “Bedstraw plant response rating” value ([11]; Rate 125 g/ha) was 1 and the “Plant response rating, Bedstraw” value ([11]; Rate 250 g/ha) was 4. The “Plant response rating, Wheat” value [12, 19] was 0, the “Wheat plant response rating” value ([12]; Rate 62 g/ha, Postemergence) was 0 and the “Wheat plant response rating” value ([12]; Rate 125 g/ha, Postemergence) was 0. The “Plant response rating, Wheat” value ([12]; Rate 125 g/ha, Preemergence) was 0, the “Plant response rating, Wheat” value ([12]; Rate 250 g/ha, Postemergence) was 0 and the “Plant response rating, Wheat” value ([12]; Rate 250 g/ha, Preemergence) was 0. For the same molecule, the “Plant response rating, Corn” value (corn (Zea mays); [19]) was 0, the “Corn plant response rating” value (corn (Zea mays); Rate 62 g/ha, Postemergence) was 1 and the “Corn plant response rating” value (corn (Zea mays); Rate 125 g/ha, Postemergence) was 1. The “Plant response rating, Corn” value (corn (Zea mays); Rate 125 g/ha, Preemergence) was 0, the “Plant response rating, Corn” value (corn (Zea mays); Rate 250 g/ha, Postemergence) was 1 and the “Plant response rating, Corn” value (corn (Zea mays); Rate 250 g/ha, Preemergence) was 0. The “Plant response rating, Soybean” value (soybean (Glycine max); [19]) was 0, the “Soybean plant response rating” value (soybean (Glycine max); Rate 62 g/ha, Postemergence) was 0 and the “Soybean plant response rating” value (soybean (Glycine max); Rate 125 g/ha, Postemergence) was 1. For the same molecule, the “Plant response rating, Soybean” value (soybean (Glycine max); Rate 125 g/ha, Preemergence) was 0, the “Plant response rating, Soybean” value (soybean (Glycine max); Rate 250 g/ha, Postemergence) was 1 and the “Plant response rating, Soybean” value (soybean (Glycine max); Rate 250 g/ha, Preemergence) was 0. The “Plant response rating, Redroot pigweed” value [13, 19] was 0, the “Redroot pigweed plant response rating” value ([13]; Rate 62 g/ha, Postemergence) was 2 and the “Redroot pigweed plant response rating” value ([13]; Rate 125 g/ha, Postemergence) was 2. The “Plant response rating, Redroot pigweed” value ([13]; Rate 125 g/ha, Preemergence) was 0, the “Plant response rating, Redroot pigweed” value ([13]; Rate 250 g/ha, Postemergence) was 3 and the “Plant response rating, Redroot pigweed” value ([13]; Rate 250 g/ha, Preemergence) was 0. The “Plant response rating, Sugarbeets” value [14, 19] was 0, the “Sugarbeets plant response rating” value ([14]; Rate 62 g/ha, Postemergence) was 1 and the “Sugarbeets plant response rating” value ([14]; Rate 125 g/ha, Postemergence) was 1. For the same molecule, the “Plant response rating, Sugarbeets” value ([14]; Rate 125 g/ha, Preemergence) was 0, the “Plant response rating, Sugarbeets” value ([14]; Rate 250 g/ha, Postemergence) was 3 and the “Plant response rating, Sugarbeets” value ([14]; Rate 250 g/ha, Preemergence) was 0. The “Plant response rating, Rape” value (rape (Brassica napus); [19]) was 0, the “Rape plant response rating” value (rape (Brassica napus); Rate 62 g/ha, Postemergence) was 1 and the “Rape plant response rating” value (rape (Brassica napus); Rate 125 g/ha, Postemergence) was 1. The “Plant response rating, Rape” value (rape (Brassica napus); Rate 125 g/ha, Preemergence) was 0, the “Plant response rating, Rape” value (rape (Brassica napus); Rate 250 g/ha, Postemergence) was 2 and the “Plant response rating, Rape” value (rape (Brassica napus); Rate 250 g/ha, Preemergence) was 0. The “Plant response rating, Nutsedge” value ([15]; Preemergence, scale of 0 to 10) was 0 and the “Nutsedge plant response rating” value ([15]; Postemergence) was 0.
